Measured values from US9532988B2, “Pharmaceutical composition comprising a TRPA1 antagonist and an analgesic agent” (GLENMARK PHARMACEUTICALS S.A., priority 2013, dated 2017).
Counter-ions that a name gives are not always drawn.

What was measured:
[1] = tested on: CCI-induced neuropathic hyperalgesia in male SD rats; assay: Chronic constriction injury (CCI)-induced mechanical hyperalgesia; type: in vivo, rat (Sprague-Dawley); settings: 0.5-4 h post-dose, Example 8, Table 11, FIG. 12
Method: The objective of this experiment was to study the combinational effect of Compound I and pregabalin in CCI-induced neuropathic hyperalgesia in male SD rats. Male SD rats weighing 180-220 g were grouped according to Table 11. Rats were anesthetized using ketamine/xylazine (40/5 mg/kg, i.p.) and the left sciatic nerve was exposed at mid-thigh level through a small incision. Four loose ligatures of 4-0 chromic cat gut at 1 mm space were placed around the sciatic nerve after the bifurcation of common sciatic nerve. After 6-7 days, mechanical hyperalgesia was assessed by measuring hind paw withdrawal thresholds to an increasing pressure (g) stimulus, using the Randall-Sellitto analgesymeter (Ugo Basile, Italy), fitted with a wedge-shaped probe.
Rats were orally dosed with vehicle, pregabalin, Compound I potassium salt and combination (Pregabalin+Compound I).

[2] = tested on: Spinal nerve ligation (SNL) injury-induced neuropathic hyperalgesia in male SD rats; assay: Spinal nerve ligation (SNL)-induced mechanical hyperalgesia; type: in vivo, rat (Sprague-Dawley); settings: 0.5-4 h post-dose, Example 15, Table 18, FIG. 20
Method: Spinal nerve ligation (SNL) injury in rats induces neuropathic mechanical hyperalgesia in this Chung's model. Rats were anesthetized using ketamine/xylazine (40/5 mg/kg, i.p.) and a 2-3 cm longitudinal incision was made in the lumbar spinal region, 5-6 mm lateral to the midline and above the lower lumbar vertebrae and the rostral sacrum, exposing the paraspinal muscles on the left side. The paraspinal muscles were isolated using blunt-tipped scissors for exposing L6 transverse process. The L6 transverse process was cut with the help of blunt-tipped scissor to visualize the left L5 spinal nerves. The nerves were cleaned from adhering tissue and were tightly ligated using 7.0 silk sutures (EP 1.5, Pearsalls Ltd) (Somerset, UK). The wound was closed with muscle & skin sutures and Povidone-iodine solution was applied every day till complete healing. […] Mechanical hyperalgesia was assessed by measuring hind paw withdrawal to an increasing pressure (g) stimulus, using an analgesymeter (Ugo Basile, Italy) fitted with a wedge-shaped probe.
Mechanical hyperalgesia was assessed both pre- & post-dosing of drugs by measuring hind paw withdrawal thresholds. […] The post-dose paw withdrawal thresholds were measured at 0.5, 1, 2 & 4 h after oral administration. The % reversal of mechanical hyperalgesia was calculated as per standard procedure.

[3] = tested on: Freund's Complete Adjuvant (FCA)-induced inflammatory mechanical hyperalgesia in male SD rats; assay: FCA-induced inflammatory mechanical hyperalgesia (Randall-Sellitto paw pressure);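 also: left hind paw withdrawal threshold (g) to rising pressure on an analgesymeter, FCA injected intraplantar 24 h earlier, thresholds taken before and 0.5, 1, 2 and 4 h after oral dosing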
Method: Materials: FCA containing 1 mg/ml of heat killed and dried Mycobacterium tuberculosis (H37RA strain) emulsified in mineral oil and mannide mono-oleate; Male SD rats weighing 170-220 g; Paw Pressure Analgesymeter (37215, Ugo Basile, Comerio, Italy); Compound I potassium; and Diclofenac sodium
Naïve withdrawal thresholds of the left hind paw to an increasing pressure (g) stimulus were measured in rats using the analgesymeter. FCA was injected (30 μl) into the plantar region of left paw of rats to induce the inflammatory hyperalgesia. Mechanical hyperalgesia (24 h after FCA injection) was assessed by measuring hind paw withdrawal thresholds.
The post-dose paw withdrawal thresholds were measured at 0.5, 1, 2 & 4 h after oral administration. The percentage (%) reversal of mechanical hyperalgesia was calculated as per standard procedure.
Naïve withdrawal thresholds of the left hind paw to an increasing pressure (g) stimulus were measured in rats using the analgesymeter. Freund's Complete Adjuvant (FCA) was injected (30 μl) into the plantar region of left paw of rats to induce the inflammatory hyperalgesia. Mechanical hyperalgesia (24 h after FCA injection) was assessed both pre- & post-dosing of drugs by measuring hind paw withdrawal thresholds. […] The post-dose paw withdrawal thresholds were measured at 0.5, 1, 2 & 4 h after oral administration. The % reversal of mechanical hyperalgesia was calculated.
Naïve withdrawal thresholds of the left hind paw to an increasing pressure (g) stimulus were measured in rats using the analgesymeter.

[4] = tested on: FCA-induced thermal hyperalgesia in male SD rats; assay: FCA-induced thermal hyperalgesia (Hargreaves apparatus); type: in vivo, rat (Sprague-Dawley); settings: diclofenac sodium 6 mg/kg p.o. alone; 0.5-4 h post-dose; Example 16, Table 19, FIG. 22
Method: The % reversal of mechanical/thermal hyperalgesia was calculated.

[5] = tested on: motor coordination in rotarod test in male SD rats; assay: Motor coordination in rotarod test; type: in vivo, rat (Sprague-Dawley)
Method: FIG. 9 is a bar graph that represents effect of Compound I (3 mg/kg), thiocolchicoside (0.01 mg/kg) and their combination on motor coordination in rotarod test in male SD rats.
FIG. 19 is a bar graph that represents effect of combination of thiocolchicoside (0.01 mg/kg) and Compound II (0.13 mg/kg) and their combination on motor coordination in rotarod test in male SD rats.

[6] = tested on: Monosodium Iodo Acetate (MIA)-osteoarthritis induced weight bearing deficit in male SD rats; assay: MIA-osteoarthritis induced weight bearing deficit (incapacitance meter); type: in vivo, rat (Sprague-Dawley); settings: 0.5-4 h post-dose, Example 3, Table 5, FIG. 5
Method: After recording basal weight borne by both hind limbs (naïve) using the incapacitance meter (IITC Inc), rats were briefly anaesthetized with 2% isoflurane and O2 mixture and given intraarticular (i.a.) injection of MIA (5 mg per rat in […]) through the intrapatellar ligament of the left knee (Combe et al., 2004). MIA was dissolved in 0.9% sterile saline and administered using a 26½ gauge needle. Contralateral knees were injected intra-articularly with 50 μl of 0.9% sterile saline. Weight bearing deficit in ipsilateral paw was assessed 20 h post MIA injection by measuring weight borne by both hind limbs.
On the day of the experiment (20 h after MIA injection), rats were evaluated for pre-dose weight bearing deficit to assess the effect of MIA. After regrouping the rats after randomization, the pre- & post-dose weight bearing deficit, was assessed for both hind limbs. Rats were orally dosed with vehicle, naproxen, compound I potassium salt and combination (Naproxen+Compound I—simultaneously). The effect of compound I, naproxen and their combination, in MIA-osteoarthritis induced weight bearing deficit in male SD rats, was evaluated using Incapacitance meter (IITC Inc.) fitted with a perspex chamber designed so that each hind paw rat rests on separate transducer pads to record animal's weight on each paw. […] The % reversal of weight bearing deficit was calculated as per standard procedure. […]

[7] = tested on: MIA-osteoarthritis induced mechanical punctate allodynia in male SD rats; assay: MIA-induced mechanical punctate allodynia (dynamic von Frey); type: in vivo, rat (Sprague-Dawley); settings: naproxen 3 mg/kg p.o. alone; 0.5-4 h post-dose; Example 19, Table 22, FIG. 25
Method: MIA was dissolved in 0.9% sterile saline and administered using a 26½ gauge needle. Contralateral knees were injected intra-articularly with 50 μl of 0.9% sterile saline. On the day of the experiment (20 h after MIA injection), rats were evaluated for pre-dose mechanical punctate allodynia to assess the effect of MIA. After regrouping the rats after randomization, the pre- & post-dose mechanical allodynia was assessed for both hind paws. […] The % reversal of punctate allodynia was calculated as per standard procedure. Animals were weighed and grouped as described in Table 22.

[8] = tested on: Streptozotocin (STZ)-induced diabetic peripheral neuropathic hyperalgesia in male SD rats; assay: Streptozotocin-induced diabetic peripheral neuropathic hyperalgesia; type: in vivo, rat (Sprague-Dawley)
Method: (§1) Streptozotocin (STZ)-induced neuropathic hyperalgesia in rats is a model to screen potential therapeutics for diabetic painful neuropathy in human patients. Streptozotocin was dissolved in freshly prepared cold citrate buffer (0.1 M, pH—4.4). Diabetes was induced in overnight fasted male SD rats (weighing 250-300 g) by a single intraperitoneal injection of Streptozotocin (Sigma, 55 mg/kg, i.p). […] On the day of the experiment (13th day after STZ injection) rats were assessed for mechanical hyperalgesia using Randall-Sellito paw pressure analgesymeter. Animals were weighed and grouped as described in Table 9.
Rats were orally dosed with vehicle, duloxetine hydrochloride, Compound I potassium salt and combination (Duloxetine+Compound I).
as §1, with “pH —4.4).” for “pH—4.4).”, “Sprague Dawley” for “SD”, “rats” for “rats (weighing 250-300 g)”, “analgesymeter.” for “analgesymeter. Animals were weighed and grouped as described in Table 9.”
Rats were orally dosed with vehicle, different doses of duloxetine hydrochloride, Compound II disodium salt and combinations (duloxetine+Compound II—simultaneously). The post-dose paw withdrawal thresholds were measured at 1, 2 & 4 h after oral administration. […] Animals were weighed and grouped as described in Table 16.
Rats were orally dosed with vehicle, different doses of duloxetine hydrochloride, Compound III disodium salt and combinations (duloxetine+Compound III—simultaneously). […] Animals were weighed and grouped as described in Table 21.

Question: Which “maximal % reversal of hyperalgesia” value ([1]; pregabalin 1 mg/kg p.o. alone) does the source give for `CC(C)C[C@H](CN)CC(=O)O` [pregabalin] here?
Answer: 14%

Question: What about the “maximal % reversal of hyperalgesia” value ([2]; pregabalin 1 mg/kg p.o. alone) of the same molecule?
Answer: 20%

Question: How did the “maximal % reversal of hyperalgesia” value ([3]; paracetamol 60 mg/kg p.o. alone, Example 5, Table 7, FIG. 7) turn out when `CC(=O)Nc1ccc(O)cc1` [paracetamol] was run?
Answer: 28%

Question: What about the “maximal % reversal of hyperalgesia” value ([3]; paracetamol 60 mg/kg p.o. alone, Example 12, Table 15, FIG. 16) of the same molecule?
Answer: 17%

Question: What does the source list for `O=C(O)Cc1ccccc1Nc1c(Cl)cccc1Cl` [diclofenac sodium]?
Answer: maximal % reversal of thermal hyperalgesia [4]: 27%; maximal % reversal of hyperalgesia ([3]; diclofenac sodium 6 mg/kg p.o. alone, 0.5-4 h post-dose, Example 1, Table 1, FIG. 1): 15%; maximal % reversal of hyperalgesia ([3]; diclofenac sodium 6 mg/kg p.o. alone, Example 9, Table 12, FIG. 13): 14%; maximal % reversal of mechanical hyperalgesia ([3]; diclofenac sodium 6 mg/kg p.o. alone, Example 16, Table 19, FIG. 21): 23%; maximal % reversal of hyperalgesia ([3]; diclofenac sodium 8 mg/kg p.o. alone, Example 1, Table 2, FIG. 2): 39%

Question: What does the source list for `COc1c(O[C@@H]2O[C@H](CO)[C@@H](O)[C@H](O)[C@H]2O)cc2c(c1OC)-c1ccc(SC)c(=O)cc1[C@@H](NC(C)=O)CC2` [thiocolchicoside]?
Answer: motor deficits (rotarod) ([5]; thiocolchicoside 0.01 mg/kg alone, Example 6, FIG. 9): did not produce any motor deficits; motor deficits (rotarod) ([5]; thiocolchicoside 0.01 mg/kg alone, n=8, Example 14, FIG. 19): did not produce any motor deficits; maximal % reversal of hyperalgesia ([3]; thiocolchicoside 0.01 mg/kg p.o. alone, Example 6, Table 8, FIG. 8): 15%; maximal % reversal of hyperalgesia ([3]; thiocolchicoside 0.01 mg/kg p.o. alone, Example 14, Table 17, FIG. 18): 14%

Question: With `COc1ccc2cc([C@H](C)C(=O)O)ccc2c1` [naproxen] as the molecule, how does the “maximal % reversal of weight bearing deficit” value ([6]; naproxen 10 mg/kg p.o. alone) read?
Answer: 39%

Question: And the “maximal % reversal of mechanical punctate allodynia” value [7]?
Answer: 18%

Question: And the “maximal % reversal of hyperalgesia” value ([3]; naproxen 3 mg/kg p.o. alone, Example 2, Table 3, FIG. 3)?
Answer: 23%

Question: What about the “maximal % reversal of hyperalgesia” value ([3]; naproxen 3 mg/kg p.o. alone, Example 10, Table 13, FIG. 14) of the same molecule?
Answer: 18%

Question: And the “maximal % reversal of mechanical hyperalgesia” value ([3]; naproxen 3 mg/kg p.o. alone, Example 17, Table 20, FIG. 23)?
Answer: 17%

Question: And the “maximal % reversal of hyperalgesia” value ([3]; naproxen 5 mg/kg p.o. alone, Example 2, Table 4, FIG. 4)?
Answer: 32%

Question: Which results are given for `CNCC[C@H](Oc1cccc2ccccc12)c1cccs1` [duloxetine hydrochloride]?
Answer: maximal % reversal of hyperalgesia ([8]; duloxetine hydrochloride 3 mg/kg p.o. alone, 0.5-4 h post-dose, Example 7, Table 9, FIG. 10): 23%; maximal % reversal of hyperalgesia ([8]; duloxetine hydrochloride 3 mg/kg p.o. alone, 0.5-4 h post-dose, Example 18, Table 21, FIG. 24): 20%; maximal % reversal of hyperalgesia ([8]; duloxetine hydrochloride 3 mg/kg p.o. alone, 1, 2 & 4 h post-dose, Example 13, Table 16, FIG. 17): 17%; maximal % reversal of hyperalgesia ([8]; duloxetine hydrochloride 10 mg/kg p.o. alone, Example 7, Table 10, FIG. 11): 35%

Question: Which “maximal % reversal of hyperalgesia” value ([8]; Compound II 0.04 mg/kg p.o. alone, 1, 2 & 4 h post-dose, Example 13, Table 16, FIG. 17) does the source give for `Cn1nc2c(c1CC(=O)N=c1scc(-c3ccc(F)c(C(F)(F)F)c3F)n1COP(=O)(O)O)c(=O)n(C)c(=O)n2C` [Compound II, 4-(2,4-difluoro-3-(trifluoromethyl)phenyl)-2-((2-(2,5,7-trimethyl-4,6-dioxo-4,5,6,7-tetrahydro-2H-pyrazolo[3,4-d]pyrimidin-3-yl)acetyl)imino)thiazol-3 (2H)-yl)methyl dihydrogen phosphate] here?
Answer: 13%

Question: What about the “maximal % reversal of hyperalgesia” value ([2]; Compound II 0.13 mg/kg p.o. alone) of the same molecule?
Answer: 18%

Question: And the “motor deficits (rotarod)” value ([5]; Compound II 0.13 mg/kg alone, n=8, Example 14, FIG. 19)?
Answer: did not produce any motor deficits

Question: And the “maximal % reversal of hyperalgesia” value ([3]; Compound II 0.13 mg/kg p.o. alone, Example 9, Table 12, FIG. 13)?
Answer: 21%

Question: What about the “maximal % reversal of hyperalgesia” value ([3]; Compound II 0.13 mg/kg p.o. alone, Example 10, Table 13, FIG. 14) of the same molecule?
Answer: 22%

Question: What about the “maximal % reversal of hyperalgesia” value ([3]; Compound II 0.13 mg/kg p.o. alone, Example 11, Table 14, FIG. 15) of the same molecule?
Answer: 14%

Question: And the “maximal % reversal of hyperalgesia” value ([3]; Compound II 0.13 mg/kg p.o. alone, Example 12, Table 15, FIG. 16)?
Answer: 22%

Question: And the “maximal % reversal of hyperalgesia” value ([3]; Compound II 0.13 mg/kg p.o. alone, Example 14, Table 17, FIG. 18)?
Answer: 14%

Question: For `Cn1c(=O)c2c(CC(=O)Nc3nc(-c4ccc(F)c(C(F)(F)F)c4F)cs3)csc2n(C)c1=O` [Compound I, N-{4-[2,4-difluoro-3-(trifluoromethyl)phenyl]-1,3-thiazol-2-yl}-2-(1,3-dimethyl-2,4-dioxo-1,2,3,4-tetrahydrothieno[2,3-d]pyrimidin-5-yl)acetamide], which “maximal % reversal of weight bearing deficit” value ([6]; Compound I 1 mg/kg p.o. alone) is on record?
Answer: 8%

Question: And the “maximal % reversal of hyperalgesia” value ([8]; Compound I 1 mg/kg p.o. alone, Example 7, Table 10, FIG. 11)?
Answer: 10%

Question: And the “maximal % reversal of hyperalgesia” value ([8]; Compound I 3 mg/kg p.o. alone, 0.5-4 h post-dose, Example 7, Table 9, FIG. 10)?
Answer: 26%

Question: And the “maximal % reversal of hyperalgesia” value ([1]; Compound I 3 mg/kg p.o. alone)?
Answer: 22%

Question: What about the “maximal % reversal of hyperalgesia” value ([3]; Compound I 1 mg/kg p.o. alone, Example 1, Table 2, FIG. 2) of the same molecule?
Answer: 15%

Question: What about the “maximal % reversal of hyperalgesia” value ([3]; Compound I 1 mg/kg p.o. alone, Example 2, Table 4, FIG. 4) of the same molecule?
Answer: 10%

Question: What about the “maximal % reversal of hyperalgesia” value ([3]; Compound I 3 mg/kg p.o. alone, 0.5-4 h post-dose, Example 1, Table 1, FIG. 1) of the same molecule?
Answer: 21%

Question: And the “maximal % reversal of hyperalgesia” value ([3]; Compound I 3 mg/kg p.o. alone, Example 2, Table 3, FIG. 3)?
Answer: 25%

Question: And the “maximal % reversal of hyperalgesia” value ([3]; Compound I 3 mg/kg p.o. alone, Example 4, Table 6, FIG. 6)?
Answer: 21%

Question: And the “maximal % reversal of hyperalgesia” value ([3]; Compound I 3 mg/kg p.o. alone, Example 5, Table 7, FIG. 7)?
Answer: 25%

Question: And the “maximal % reversal of hyperalgesia” value ([3]; Compound I 3 mg/kg p.o. alone, Example 6, Table 8, FIG. 8)?
Answer: 17%

Question: What does the source list for `Cc1cnc(NC(=O)C2=C(O)c3ccccc3S(=O)(=O)N2C)s1` [meloxicam]?
Answer: maximal % reversal of hyperalgesia ([3]; meloxicam 0.5 mg/kg p.o. alone, Example 4, Table 6, FIG. 6): 21%; maximal % reversal of hyperalgesia ([3]; meloxicam 0.5 mg/kg p.o. alone, Example 11, Table 14, FIG. 15): 19%
